Calls of active or inactive are those of the source. No cut-off for these calls is given here.
Key:
[1] = target: T1, von Hippel-Lindau disease tumor suppressor/Histone deacetylase 8 (Homo sapiens) (UniProt Q9BY41+P40337); assay: Protac activity at VHL/HDAC8 in human A549 cells assessed as degradation of HDAC8 at 200 nM measured after 20 hrs by Western blot analysis relative to control; assay type: cell-based
[2] = target: T1, von Hippel-Lindau disease tumor suppressor/Histone deacetylase 8 (Homo sapiens); assay: Protac activity at VHL/HDAC8 in human A549 cells assessed as degradation of HDAC8 at 2 uM measured after 20 hrs by Western blot analysis relative to control; assay type: cell-based
[3] = target: Protein cereblon/Histone deacetylase 8 (Homo sapiens, UniProt Q96SW2+Q9BY41); assay: Protac activity at CRBN/HDAC8 in human A549 cells assessed as degradation of HDAC8 incubated for 20 hrs by ELISA method; assay type: cell-based
[4] = target: T2, Protein cereblon/Histone deacetylase 8 (Homo sapiens) (UniProt Q9BY41+Q96SW2); assay: Protac activity at CRBN/HDAC8 in human A549 cells assessed as degradation of HDAC8 at 2 uM measured after 20 hrs by Western blot analysis relative to control; assay type: cell-based
[5] = target: T2, Protein cereblon/Histone deacetylase 8 (Homo sapiens); assay: Protac activity at CRBN/HDAC8 in human A549 cells assessed as degradation of HDAC8 at 200 nM measured after 20 hrs by Western blot analysis relative to control; assay type: cell-based
[6] = target: von Hippel-Lindau disease tumor suppressor/Histone deacetylase 1 (Homo sapiens) (UniProt Q13547+P40337); assay: Protac activity at VHL/HDAC1 in human A549 cells assessed as degradation of HDAC1 at 0.1 to 10 uM by Western blot analysis; assay type: cell-based; settings: dose 0.1-10 µM
[7] = target: von Hippel-Lindau disease tumor suppressor/Histone deacetylase 2 (Homo sapiens) (UniProt Q92769+P40337); assay: Protac activity at VHL/HDAC2 in human A549 cells assessed as degradation of HDAC2 at 0.1 to 10 uM by Western blot analysis; assay type: cell-based; settings: dose 0.1-10 µM
[8] = target: von Hippel-Lindau disease tumor suppressor/Histone deacetylase 3 (Homo sapiens) (UniProt O15379+P40337); assay: Protac activity at VHL/HDAC3 in human A549 cells assessed as degradation of HDAC3 at 0.1 to 10 uM by Western blot analysis; assay type: cell-based; settings: dose 0.1-10 µM
HCT-116 = assay: Inhibition of colony formation in human HCT-116 cells assessed as reduction in cell proliferation at 2.5 to 10 uM measured after 7 to 10 days with media replenishment along with compound for every 3 days by crystal violet staining based analysis; assay type: functional; settings: dose 2.5-10 µM, time 7-10 day
A549 = assay: Inhibition of colony formation in human A549 cells assessed as reduction in cell proliferation at 2.5 to 10 uM measured after 7 to 10 days with media replenishment along with compound for every 3 days by crystal violet staining based analysis; assay type: functional; settings: dose 2.5-10 µM, time 7-10 day
[9] = target: T1, von Hippel-Lindau disease tumor suppressor/Histone deacetylase 8 (Homo sapiens); assay: Protac activity at VHL/HDAC8 in human A549 cells assessed as degradation of HDAC8 by Western blot analysis; assay type: cell-based; settings: dose 0.1-10 µM

T1 sequence (P40337 whole entry, looked up): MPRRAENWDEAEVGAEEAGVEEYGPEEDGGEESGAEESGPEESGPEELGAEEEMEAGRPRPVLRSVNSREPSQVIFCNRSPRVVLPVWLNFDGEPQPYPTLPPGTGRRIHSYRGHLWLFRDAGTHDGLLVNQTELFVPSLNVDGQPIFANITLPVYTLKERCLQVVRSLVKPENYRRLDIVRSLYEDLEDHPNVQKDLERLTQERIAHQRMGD
T1 sequence (Q9BY41 whole entry, looked up): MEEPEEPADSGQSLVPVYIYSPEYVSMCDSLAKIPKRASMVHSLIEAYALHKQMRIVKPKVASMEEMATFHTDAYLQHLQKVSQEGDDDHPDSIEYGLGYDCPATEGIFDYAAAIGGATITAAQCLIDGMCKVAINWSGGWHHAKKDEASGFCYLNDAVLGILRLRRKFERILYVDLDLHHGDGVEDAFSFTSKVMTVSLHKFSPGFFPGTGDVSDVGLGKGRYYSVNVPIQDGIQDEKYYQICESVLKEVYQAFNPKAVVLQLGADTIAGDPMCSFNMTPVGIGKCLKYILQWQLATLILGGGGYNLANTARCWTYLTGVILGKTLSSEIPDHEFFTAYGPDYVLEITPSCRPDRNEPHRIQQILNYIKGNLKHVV
T2 sequence (Q96SW2 whole entry, looked up): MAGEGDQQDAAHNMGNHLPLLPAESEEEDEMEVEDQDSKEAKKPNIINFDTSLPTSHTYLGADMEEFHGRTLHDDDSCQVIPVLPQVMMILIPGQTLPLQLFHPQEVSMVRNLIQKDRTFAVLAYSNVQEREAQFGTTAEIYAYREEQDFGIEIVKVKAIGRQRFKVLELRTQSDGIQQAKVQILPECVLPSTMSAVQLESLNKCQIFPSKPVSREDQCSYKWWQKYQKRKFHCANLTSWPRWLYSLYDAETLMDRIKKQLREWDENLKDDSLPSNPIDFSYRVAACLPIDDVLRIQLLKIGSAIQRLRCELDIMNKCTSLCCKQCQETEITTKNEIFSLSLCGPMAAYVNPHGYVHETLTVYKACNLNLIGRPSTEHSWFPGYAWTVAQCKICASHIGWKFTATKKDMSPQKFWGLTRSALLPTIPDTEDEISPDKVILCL
T2 sequence (Q9BY41 whole entry, looked up): as the sequence (Q9BY41 whole entry, looked up) above
Chain of von Hippel-Lindau disease tumor suppressor/Histone deacetylase 2 (Homo sapiens) (P40337 whole entry, looked up): as the sequence (P40337 whole entry, looked up) above
Chain of von Hippel-Lindau disease tumor suppressor/Histone deacetylase 2 (Homo sapiens) (Q92769 whole entry, looked up): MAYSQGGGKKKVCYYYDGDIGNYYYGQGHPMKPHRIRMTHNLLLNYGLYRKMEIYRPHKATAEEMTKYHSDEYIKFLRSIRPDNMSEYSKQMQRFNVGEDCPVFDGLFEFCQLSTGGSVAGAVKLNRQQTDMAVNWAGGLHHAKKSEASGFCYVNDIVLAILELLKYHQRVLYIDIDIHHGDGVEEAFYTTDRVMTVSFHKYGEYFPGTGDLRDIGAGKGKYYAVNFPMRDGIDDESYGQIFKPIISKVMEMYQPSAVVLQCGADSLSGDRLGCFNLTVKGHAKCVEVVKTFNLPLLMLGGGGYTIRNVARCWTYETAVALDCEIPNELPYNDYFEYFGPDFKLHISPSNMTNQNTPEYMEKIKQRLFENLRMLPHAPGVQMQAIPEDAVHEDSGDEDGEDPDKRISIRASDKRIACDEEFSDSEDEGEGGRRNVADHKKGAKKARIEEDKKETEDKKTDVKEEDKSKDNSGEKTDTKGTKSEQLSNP
Chain of von Hippel-Lindau disease tumor suppressor/Histone deacetylase 1 (Homo sapiens) (P40337 whole entry, looked up): as the sequence (P40337 whole entry, looked up) above
Chain of von Hippel-Lindau disease tumor suppressor/Histone deacetylase 1 (Homo sapiens) (Q13547 whole entry, looked up): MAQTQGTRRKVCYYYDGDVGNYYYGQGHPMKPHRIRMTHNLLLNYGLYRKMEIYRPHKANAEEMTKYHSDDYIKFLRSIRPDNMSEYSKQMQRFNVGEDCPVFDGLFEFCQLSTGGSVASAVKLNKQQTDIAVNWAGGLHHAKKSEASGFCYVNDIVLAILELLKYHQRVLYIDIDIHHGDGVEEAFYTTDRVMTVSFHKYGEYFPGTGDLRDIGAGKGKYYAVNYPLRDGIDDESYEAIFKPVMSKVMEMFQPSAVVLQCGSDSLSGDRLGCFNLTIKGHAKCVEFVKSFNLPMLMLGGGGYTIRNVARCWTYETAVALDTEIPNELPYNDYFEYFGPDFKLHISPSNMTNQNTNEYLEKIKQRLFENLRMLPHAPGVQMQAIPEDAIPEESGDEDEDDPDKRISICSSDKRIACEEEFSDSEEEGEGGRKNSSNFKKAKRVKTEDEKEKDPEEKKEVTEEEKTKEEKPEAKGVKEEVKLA
Chain of von Hippel-Lindau disease tumor suppressor/Histone deacetylase 3 (Homo sapiens) (O15379 whole entry, looked up): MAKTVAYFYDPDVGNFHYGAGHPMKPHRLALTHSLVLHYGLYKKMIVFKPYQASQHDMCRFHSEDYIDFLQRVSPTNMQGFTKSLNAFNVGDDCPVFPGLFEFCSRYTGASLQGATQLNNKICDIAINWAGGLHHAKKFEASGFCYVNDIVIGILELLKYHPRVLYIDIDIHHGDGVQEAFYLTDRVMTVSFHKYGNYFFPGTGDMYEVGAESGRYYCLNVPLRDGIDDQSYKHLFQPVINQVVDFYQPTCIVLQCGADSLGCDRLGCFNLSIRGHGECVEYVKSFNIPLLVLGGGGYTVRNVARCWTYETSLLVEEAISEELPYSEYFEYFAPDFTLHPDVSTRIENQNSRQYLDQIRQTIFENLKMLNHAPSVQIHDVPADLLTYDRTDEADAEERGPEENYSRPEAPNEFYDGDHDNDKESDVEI
Chain of von Hippel-Lindau disease tumor suppressor/Histone deacetylase 3 (Homo sapiens) (P40337 whole entry, looked up): as the sequence (P40337 whole entry, looked up) above
Chain of Protein cereblon/Histone deacetylase 8 (Q9BY41 whole entry): as the sequence (Q9BY41 whole entry, looked up) above
Chain of Protein cereblon/Histone deacetylase 8 (Q96SW2 whole entry): as the sequence (Q96SW2 whole entry, looked up) above

Activity [1] | Activity [2] | Activity [4] | Activity [5] | Structure (SMILES) | further results
26.7% | 50.2% |  |  | Cc1ncsc1-c1ccc([C@H](C)NC(=O)[C@@H]2C[C@@H](O)CN2C(=O)[C@@H](NC(=O)COCCOCCOCCOc2ccc(Cn3ccc4ccc(C(=O)NO)cc43)cc2)C(C)(C)C)cc1 | 
29.8% | 73.6% |  |  | Cc1ncsc1-c1ccc([C@H](C)NC(=O)[C@@H]2C[C@@H](O)CN2C(=O)[C@@H](NC(=O)CCCCCCOc2ccc(Cn3ccc4ccc(C(=O)NO)cc43)cc2)C(C)(C)C)cc1 | 
 |  | 59.7% | 28.5% | O=C1CCC(N2C(=O)c3cccc(NCc4cn(CCCCCCOc5ccc(Cn6ccc7ccc(C(=O)NO)cc76)cc5)nn4)c3C2=O)C(=O)N1 (configuration not stated) | EC50 [3]: 0.58 µM
45.7% | 91.3% |  |  | Cc1ncsc1-c1ccc([C@H](C)NC(=O)[C@@H]2C[C@@H](O)CN2C(=O)[C@@H](NC(=O)COCCOc2ccc(Cn3ccc4ccc(C(=O)NO)cc43)cc2)C(C)(C)C)cc1 | Activity [6]: inactive; Activity [7]: inactive; Activity [8]: inactive; inhibition (HCT-116): Active; inhibition (A549): Active; Activity [9]: Active
34.6% | 75.7% |  |  | Cc1ncsc1-c1ccc([C@H](C)NC(=O)[C@@H]2C[C@@H](O)CN2C(=O)[C@@H](NC(=O)CCCCOc2ccc(Cn3ccc4ccc(C(=O)NO)cc43)cc2)C(C)(C)C)cc1 | 
 |  | 69.4% | 25.6% | O=C1CCC(N2C(=O)c3cccc(NCc4cn(CCCOc5ccc(Cn6ccc7ccc(C(=O)NO)cc76)cc5)nn4)c3C2=O)C(=O)N1 (configuration not stated) | 
28.6% | 72.9% |  |  | Cc1ncsc1-c1ccc([C@H](C)NC(=O)[C@@H]2C[C@@H](O)CN2C(=O)[C@@H](NC(=O)COCCOCCOCCOCCOc2ccc(Cn3ccc4ccc(C(=O)NO)cc43)cc2)C(C)(C)C)cc1 | 
31.3% | 75.3% |  |  | Cc1ncsc1-c1ccc([C@H](C)NC(=O)[C@@H]2C[C@@H](O)CN2C(=O)[C@@H](NC(=O)COCCOCCOc2ccc(Cn3ccc4ccc(C(=O)NO)cc43)cc2)C(C)(C)C)cc1 | 
 |  | 65.9% | 36.5% | O=C1CCC(N2C(=O)c3cccc(NCc4cn(CCOCCOCCOCCOc5ccc(Cn6ccc7ccc(C(=O)NO)cc76)cc5)nn4)c3C2=O)C(=O)N1 (configuration not stated) | 
 |  | 78.4% | 28% | O=C1CCC(N2C(=O)c3cccc(NCCc4cn(CCCCCOc5ccc(Cn6ccc7ccc(C(=O)NO)cc76)cc5)nn4)c3C2=O)C(=O)N1 (configuration not stated) | 
